In brackets after ≈: the same amount, converted by molar mass.

Assay [1] deals with Mycobacterium tuberculosis. Nature of the assay: Antimycobacterial activity against Mycobacterium tuberculosis. The format is functional.
Assay [2] concerns Mycobacterium tuberculosis. Description: microbe, parasite or virus in culture. The note with it: 120 h.
In assay [3] the test system is Escherichia coli. Nature of the assay: Antibacterial activity against Escherichia coli by agar dilution method. The format is functional.
Assay [4] deals with Pseudomonas aeruginosa. Nature of the assay: Antibacterial activity against Pseudomonas aeruginosa by agar dilution method. Format: functional.
Assay [5] deals with Staphylococcus aureus. Description: Antibacterial activity against Staphylococcus aureus by agar dilution method. Format: functional. A general note: Agar dilution tests growth on a series of plates holding different concentrations.
Assay [6] relates to Bacillus subtilis. Description: Antibacterial activity against Bacillus subtilis by agar dilution method. The format is functional.
For assay [7], the system named is HepG2. Nature of the assay: Cytotoxicity against human HepG2 cells assessed as growth inhibition. Format: functional, cell-based.
For assay [8], the target named is Carbonic anhydrase 1 (Homo sapiens, UniProt P00915).
Assay [9] addresses Carbonic anhydrase 12 (Homo sapiens, UniProt O43570). Nature of the assay: Inhibition of human CA12.
Assay [10] has as its target Carbonic anhydrase 2 (Homo sapiens, UniProt P00918).
Assay [11] has as its system Mycobacterium tuberculosis. Nature of the assay: microbe, parasite or virus in culture. As to conditions: H37Rv.
In assay [12] the test system is Plasmodium falciparum. Description: Antimalarial activity against chloroquine-sensitive Plasmodium falciparum NF54 measured after 72 hrs by giemsa staining based analysis. Format: functional, organism-based. The note with it: NF54, 72 h.
For assay [13], the species on record is Mus musculus. Nature of the assay: Antidepressant activity in mouse assessed as […] by tail suspension test. Format: functional.
Assay [14] is filed under the species Mus musculus. Description: Antidepressant activity in mouse assessed as […] by forced swimming test. The format is functional.
The species entered for assay [15] is Mus musculus. Description: Antianxiety activity in mouse assessed as increase in number of entries in different arms. Format: functional.
The nature of assay [16]: Growth inhibition of human Panel NCI-58 (58 carcinoma cell lines) cells by SRB method. Format: functional.
Assay [17] is described as follows: Cytotoxicity against human Panel NCI-58 (58 carcinoma cell lines) cells by SRB method. Format: functional. The note with it: read-out: LC50 (the source's name).
For assay [18], the system named is Escherichia coli. Description: Antibacterial activity against Escherichia coli assessed as inhibition of bacterial growth. The format is functional.
For assay [19], the system named is Pseudomonas aeruginosa. Description: Antibacterial activity against Pseudomonas aeruginosa assessed as inhibition of bacterial growth. Format: functional.
The subject of assay [20] is Staphylococcus aureus. Description: microbe, parasite or virus in culture.
Assay [21] relates to Bacillus subtilis. Nature of the assay: microbe, parasite or virus in culture.
In assay [22] the test system is Escherichia coli. Description: Antibacterial activity against Escherichia coli incubated for 24 hrs by disc diffusion method. Format: functional.
The test system of assay [23] is Aspergillus fumigatus. Nature of the assay: Antifungal activity against Aspergillus fumigatus incubated for 24 hrs by disc diffusion method. Format: functional.
For assay [24], the system named is Aspergillus niger. Description: Antifungal activity against Aspergillus niger incubated for 24 hrs by disc diffusion method. The format is functional. For orientation: A growth-free zone around the sample is the usual read-out of agar diffusion tests.
Assay [25] concerns Aspergillus flavus. Description: Antifungal activity against Aspergillus flavus incubated for 24 hrs by disc diffusion method. The format is functional.
The subject of assay [26] is Staphylococcus aureus. Nature of the assay: microbe, parasite or virus in culture. The note with it: 24 h.
In assay [27] the test system is Bacillus subtilis. Description: microbe, parasite or virus in culture. The note with it: 24 h.
The test system of assay [28] is Pseudomonas aeruginosa. Description: microbe, parasite or virus in culture. The note with it: 24 h.
Assay [29] concerns Candida albicans. Nature of the assay: microbe, parasite or virus in culture. The note with it: 24 h.
For assay [30], the system named is Staphylococcus aureus. Nature of the assay: microbe, parasite or virus in culture. The source holds these as a separate data set.
The subject of assay [31] is Candida albicans. Description: microbe, parasite or virus in culture.
For assay [32], the system named is Escherichia coli. Nature of the assay: Potency index, ratio of ampicillin MIC to compound MIC for Escherichia coli by agar dilution method. The format is functional.
Assay [33] deals with Pseudomonas aeruginosa. Nature of the assay: Potency index, ratio of ampicillin MIC to compound MIC for Pseudomonas aeruginosa by agar dilution method. Format: functional.
Assay [34] concerns Candida albicans. Nature of the assay: Antifungal activity against Candida albicans by agar dilution method. The format is functional.
Assay [35] has as its system Aspergillus niger. Nature of the assay: Antifungal activity against Aspergillus niger by agar dilution method. Format: functional.
Assay [36] concerns Bordetella bronchiseptica. Description: Antibacterial activity against Bordetella bronchiseptica ATCC 4617 by plate dilution method. The format is functional.
Assay [37] relates to Staphylococcus aureus. Nature of the assay: Antibacterial activity against Staphylococcus aureus ATCC 25923 by plate dilution method. Format: functional.
Assay [38] concerns Enterococcus faecalis. Description: Antibacterial activity against Enterococcus faecalis ATCC 29212 by plate dilution method. The format is functional.
Assay [39] relates to Staphylococcus epidermidis. Description: Antibacterial activity against Staphylococcus epidermidis ATCC 12228 by plate dilution method. Format: functional.
Assay [40] relates to Bacillus subtilis. Nature of the assay: Antibacterial activity against Bacillus subtilis ATCC 6633 by plate dilution method. The format is functional.
Assay [41] deals with Bacillus cereus. Nature of the assay: Antibacterial activity against Bacillus cereus ATCC 9946 by plate dilution method. The format is functional.
The test system of assay [42] is Escherichia coli. Nature of the assay: Antibacterial activity against Escherichia coli ATCC 25922 by plate dilution method. The format is functional.
In assay [43] the test system is Pseudomonas aeruginosa. Nature of the assay: Antibacterial activity against Pseudomonas aeruginosa ATCC 27853 by plate dilution method. Format: functional.
In assay [44] the test system is Klebsiella pneumoniae. Description: Antibacterial activity against Klebsiella pneumoniae ATCC 700603 by plate dilution method. The format is functional.
The subject of assay [45] is Proteus vulgaris. Description: Antibacterial activity against Proteus vulgaris ATCC 9920 by plate dilution method. Format: functional.
The target in assay [46] is Carbonic anhydrase 9 (Homo sapiens, UniProt Q16790). Description: Inhibition of human CA9.

Sequence of Carbonic anhydrase 12 (O43570 whole entry): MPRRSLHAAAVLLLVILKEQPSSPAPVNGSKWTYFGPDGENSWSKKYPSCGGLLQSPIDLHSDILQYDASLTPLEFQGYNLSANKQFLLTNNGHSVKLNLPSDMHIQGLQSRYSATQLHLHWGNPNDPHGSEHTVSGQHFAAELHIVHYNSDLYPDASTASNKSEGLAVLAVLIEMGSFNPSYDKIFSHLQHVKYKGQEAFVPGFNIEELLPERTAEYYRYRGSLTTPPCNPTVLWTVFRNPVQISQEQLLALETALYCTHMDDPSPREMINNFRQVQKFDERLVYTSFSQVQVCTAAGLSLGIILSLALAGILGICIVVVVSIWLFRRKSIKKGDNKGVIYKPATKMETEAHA
Sequence of Carbonic anhydrase 1 (P00915 whole entry): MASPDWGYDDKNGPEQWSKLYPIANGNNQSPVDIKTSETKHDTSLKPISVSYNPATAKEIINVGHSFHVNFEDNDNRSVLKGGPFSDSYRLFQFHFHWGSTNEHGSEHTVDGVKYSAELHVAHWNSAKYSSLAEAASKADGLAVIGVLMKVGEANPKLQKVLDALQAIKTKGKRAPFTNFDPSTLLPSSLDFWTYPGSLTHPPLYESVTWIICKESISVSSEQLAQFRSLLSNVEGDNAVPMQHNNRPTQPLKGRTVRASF

As to `CN[C@@H]1[C@H](O[C@H]2[C@H](O[C@H]3[C@H](O)[C@@H](O)[C@H](N=C(N)N)[C@@H](O)[C@@H]3N=C(N)N)O[C@@H](C)[C@]2(O)C=O)O[C@@H](CO)[C@H](O)[C@H]1O` [STREPTOMYCIN], the MIC in [1] and in [2] was 6.25 µg/mL (≈ 10.7 µM) in each case.

For the molecule `Oc1ccc(Br)cc1C1=NOC(c2cc3ccccc3n3nnnc23)C1` (stereo not drawn), the MIC in assay [3], in assay [4], in [5] and in assay [6] was 25 µg/mL (≈ 60.9 µM) throughout.

A word on the IC50: it is the concentration that inhibits the measured activity by half. Consider `Clc1ccc(-c2csc(N3N=C(c4cccs4)CC3c3ccc(Cl)cc3Cl)n2)cc1` (stereo not drawn), for which the IC50 in [7] amounted to 2980 nM.

By Ki is commonly meant a measure of affinity in units of concentration, obtained from inhibition or displacement. High values mean a looser hold on the target, low ones a stronger hold on the target. In the case of `NS(=O)(=O)c1ccc(C(=O)N2N=C(c3ccccc3)CC2c2ccc(F)cc2)cc1` (stereo not drawn), the inhibition constant (Ki) in assay [8] amounted to 87.8 nM; in [9], 7.1 nM; in assay [10] it was 31.7 nM.

`NNC(=O)c1ccncc1` [ISONIAZID]: the MIC in [11] was found to be 6.25 µg/mL (≈ 45.6 µM).

In assay [12], `COc1ccc(C2=CC(c3cc(C(C)C)c(OC)cc3C)N(C(=O)OC(C)C)N2C(=O)OC(C)C)cc1OC` (stereo not drawn) returned a concentration for half-maximal inhibition (IC50) of under 2000 nM.

In the case of `COc1cc(C)c(/C=C/C(=O)c2ccc(Br)cc2)cc1C(C)C`, the IC50 in assay [12] was under 2000 nM.

As for `Oc1ccc(C2=NNC(c3ccc(Cl)cc3)C2)cc1` (stereo not drawn), the Time in assay [13] and in [14] was 21.17 s throughout. In addition, the Activity in assay [15] is 17.67.

By GI50 is commonly meant the concentration that inhibits growth by half. In assay [16], `COc1cc(C2CC(c3ccc(Nc4nc(NCCO)nc(NCCO)n4)cc3)=NN2c2cc(Cl)cc(Cl)c2)cc(OC)c1OC` (stereo not drawn) yielded a concentration for 50% growth inhibition (GI50) of 569 nM. Besides, the CC50 in assay [17] worked out at 5150 nM.

On to `OCCNc1nc(NCCO)nc(Nc2ccc(C3=NN(c4cc(Cl)cc(Cl)c4)C(c4ccc(C(F)(F)F)cc4)C3)cc2)n1` (stereo not drawn), for which the 50% growth inhibitory concentration (GI50) in assay [16] worked out at 569 nM. Moreover, the CC50 in assay [17] is 5150 nM.

As to `NC[C@H]1O[C@H](O[C@H]2[C@H](O)[C@@H](O[C@H]3O[C@H](CO)[C@@H](O)[C@H](N)[C@H]3O)[C@H](N)C[C@@H]2N)[C@H](N)[C@@H](O)[C@@H]1O` [BEKANAMYCIN], the MIC in assay [18], in [19], in assay [20] and in [21] was 1.56 µg/mL (≈ 3.23 µM) throughout.

Consider `OC(Cn1cncn1)(Cn1cncn1)c1ccc(F)cc1F` [FLUCONAZOLE], for which the MIC in assay [22], in assay [23], in assay [24], in assay [25], in assay [26] and in [27] was 30 µg/mL (≈ 98 µM) in each case. Moreover, the MIC in [28] was 30 µg/mL (≈ 98 µM); in assay [29], 30 µg/mL (≈ 98 µM); in [30] it was under 10 µg/mL; in assay [31], under 10 µg/mL.

`COc1ccc2c(c1)C1=NN(CCCN(C)C)C3=CC=C([N+](=O)[O-])C(N2)C31` (stereo not drawn): the MIC in assay [1] came out at 3.12 µg/mL (≈ 8.45 µM); in assay [2], 3.12 µg/mL (≈ 8.46 µM).

For the molecule `Oc1ccc(Br)cc1C1=NNC(c2cc3ccccc3n3nnnc23)C1` (stereo not drawn), the MIC in assay [3] is 50 µg/mL (≈ 122 µM); in assay [4] it was 50 µg/mL (≈ 122 µM); in assay [5] it was 25 µg/mL (≈ 61.1 µM); in [6], 25 µg/mL (≈ 61.1 µM). In addition, the Ratio in [32] and in assay [33] was 2 in each case.

As to `CC(=O)N1N=C(c2ccc(Br)cc2)CC1c1cc(Cl)ccc1Oc1c([N+](=O)[O-])cc(C(F)(F)F)cc1[N+](=O)[O-]` (stereo not drawn), the MIC in assay [18] was determined as 0.39 µg/mL (≈ 0.621 µM); in assay [19], 0.39 µg/mL (≈ 0.621 µM); in [20] it was 3.12 µg/mL (≈ 4.98 µM); in assay [21], 3.12 µg/mL (≈ 4.98 µM).

Consider `COc1cccc2cc(C3CC(c4cc(Br)ccc4O)=NO3)c3nnnn3c12` (stereo not drawn), for which the MIC in assay [34] and in assay [35] was 25 µg/mL (≈ 56.8 µM) in each case.

In turn, `Cc1ccc2c(c1)cc(C1CC(c3cc(Br)ccc3O)=NN1)c1nnnn12` (stereo not drawn) came in with an MIC in assay [35] of 25 µg/mL (≈ 59.1 µM).

As for `O=c1oc2ccc(F)cc2cc1-c1csc(N2N=C(c3ccccc3F)CC2c2cc3ccccc3nc2Cl)n1` (stereo not drawn), the MIC in assay [36], in [37], in assay [38], in assay [39], in assay [40] and in [41] was 50 µg/mL (≈ 87.6 µM) each time. Further, the MIC in [42], in assay [43], in [44] and in assay [45] was 50 µg/mL (≈ 87.6 µM) each time.

Take `NS(=O)(=O)c1ccc(C(=O)N2N=C(c3ccc(F)cc3)CC2c2ccc(F)cc2)cc1` (stereo not drawn): the inhibition constant Ki in assay [8] came out at 87.8 nM; in assay [46], 5.5 nM; in [9], 7.1 nM; in assay [10] it was 31.7 nM.

For the origin of these results see ChEMBL document CHEMBL5260848, “Recent advancements in the development of bioactive pyrazoline derivatives” (Eur J Med Chem, 2020).
